Experimental data taken from USRE41226E1, “Compounds having reversible inhibiting activity of carnitine palmitoyl-transferase” (Sigma-Tau Industrie Farmaceutiche Riunite S.p.A., priority 1998, dated 2010).

Assays:
CPTI = target: T1, CPTI (Rattus norvegicus, UniProt P32198); experiment: Determination of CPT inhibiting activity in rat liver mitochondria; type: biochemical, Fischer rat; settings: 50 μM [14C] palmitoyl-CoA, 10 mM L-carnitine, 37° C., 1 minute, read-out: IC50 of inhibition CPTI curve in rat liver mitochondria
T1 construct: Mitochondria were isolated from liver or heart and suspended in 75 mM saccharose buffer; from tissue; host or cells: liver mitochondria of normally fed Fischer rats
T1 sequence (P32198 1-773): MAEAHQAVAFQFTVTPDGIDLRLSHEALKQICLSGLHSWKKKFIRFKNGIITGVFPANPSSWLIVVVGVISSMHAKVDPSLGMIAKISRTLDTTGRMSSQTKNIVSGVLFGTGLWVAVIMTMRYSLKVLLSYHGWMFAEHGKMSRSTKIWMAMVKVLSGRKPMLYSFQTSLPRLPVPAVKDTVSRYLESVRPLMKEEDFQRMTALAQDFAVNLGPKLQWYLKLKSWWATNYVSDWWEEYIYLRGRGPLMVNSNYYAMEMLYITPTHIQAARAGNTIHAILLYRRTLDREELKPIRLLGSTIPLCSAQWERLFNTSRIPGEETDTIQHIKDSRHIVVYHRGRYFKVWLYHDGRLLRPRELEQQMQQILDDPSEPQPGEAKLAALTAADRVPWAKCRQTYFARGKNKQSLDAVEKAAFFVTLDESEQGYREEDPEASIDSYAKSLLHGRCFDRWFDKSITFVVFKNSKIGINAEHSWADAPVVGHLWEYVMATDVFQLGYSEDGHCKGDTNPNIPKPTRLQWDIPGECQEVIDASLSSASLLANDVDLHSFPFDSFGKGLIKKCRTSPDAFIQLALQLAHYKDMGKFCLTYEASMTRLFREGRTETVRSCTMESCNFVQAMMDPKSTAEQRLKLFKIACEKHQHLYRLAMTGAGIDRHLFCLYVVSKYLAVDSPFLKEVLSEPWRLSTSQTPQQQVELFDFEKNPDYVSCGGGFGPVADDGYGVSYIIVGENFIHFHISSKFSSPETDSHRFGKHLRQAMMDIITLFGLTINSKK
Description: CPT inhibition was evaluated essentially as described in Kerner, J. & Bieber, L. L. (1990) Biochemistry 29: 4326-34 on fresh mitochrondrial preparation obtained from normally fed Fischer rat liver or heart. Mitochondria were isolated from liver or heart and suspended in 75 mM saccharose buffer, 1 mM EGTA, pH 7.5. 100 μl mitochrondrial suspension, containing 50 μM [^14C] palmitoyl-CoA (specific activity […]) and 10 mM L-carnitine, were incubated at 37° C., in the presence of scalar concentrations of the test product (0-3 mM). Reaction time: 1 minute.

24 hours-starved rats = experiment: Glucose and β-hydroxybutyrate in serum of fasted rats treated with CPT inhibitors; type: in vivo, Fischer rats; settings: one hour after intraperitoneal treatment, ST1326 14.5 mg/2 ml/kg, others equivalent dose
Description: Normally fed Fischer rats were starved for 24 hours and subsequently treated with the test compounds. One hour after the treatment, the animals were sacrificed and serum concentrations of glucose and β-hydroxybutyrate were determined.
For the compound ST1326 were used doses of 14.5 mg/2 ml/kg, for other test compounds, the doses are equivalent to ST1326 one.

[1] = system: β-hydroxybutyrate production in rat hepatocytes; experiment: Oleate-stimulated β-hydroxybutyrate production in rat hepatocytes; type: cell-based; settings: 40 min incubation, then oleate 1 mM for 20 min, mean of three experiments, read-out: IC50 of inhibition CPTI curve of β-hydroxybutyrate production in rat hepatocytes
Description: β-hydroxybutyrate production is an index of CPT activity. In fact, the production of ketone bodies, final products of mitochrondrial β-oxidation, is related to CPT activity.
Mitocondrial preparations, obtained according to the method by Venerando et al. (Am. J. Physiol. 266:C455-C461, 1994), were used. Hepatocytes are incubated at 37° C. in KRB bicarbonate buffer at pH 7.4, 6 mM glucose, 1% BSA in O2/CO2 95/5 atmosphere at 2.5×10^6 cells/ml. After 40 min incubation with the test compound at different concentrations, the first set of samples was taken (T0 min) and oleate was added (1 mM final in KRB+BSA 1.4%). After 20 minutes, the second withdrawal was made (T20 min)
The data are the mean of three different experiments, twice carried out.

fed with high-fat diet = experiment: Glucose and insulin levels in diabetic animals (high-fat diet) treated with CPT inhibitors; type: in vivo, C57BL/6J male rats; settings: 45 mg/Kg p.o. twice a day, after 20 days of treatment
Description: C57BL/6J male […], 5-weeks old, were provided by Ch. River. After 10 days of acclimatisation in standard conditions (22±2° C.; 55±15% humidity; 15-20/h air changes; 12 hours light-dark cycle, with 700-1900 lux) and with standard diet with 4RF21 feedstock (Mucedola), glycaemia was controlled in post-absorption state (starving from 8.30 a.m. to 4.30 p.m.). Blood withdrawal was carried out cutting the tail end. Glucose was analyzed in blood acid supernatant (HCLO4 0,375 N) with autoanalyzer Cobas Mira S with Glucose GDH Kit (Roche).
The animals were divided in two groups, 26 mice each and fed with a high-fat and a low-fat diet, respectively.
After 2 months from the start of the diet, glycaemia was tested, according to the starrting method. After about 3 months from the start of the diet, glycaemia was tested, according to the starting method and plasma insulin levels were also determined (with blood withdrawal from end tail cutting) using [125I] Rat Insulin Kit (Amersham).
One 10 mice group fed with low-fat diet and two 10-mice groups fed with the high-fat diet were selected. One of the two high fat diet was administered with ST 1327 at the dose of 45 mg/Kg in deionised H2O (p.o., twice a day, 8.30 a.m. and 5.30 p.m.).administration volume was 10 ml/Kg, the two remaining groups were treated with vehicle only. High-fat or low-fat diets were continued during the treatment.
After 20 days of treatment, glycaemia and plasma insulin were measured. After 43 days of treatment, the animals were sacrificed by decapitation in post-absorption state (fasting 8.30 a.m.-4.30 p.m.), 8 hours after the last treatment. Blood was withdrawn and serum was separated by centrifugation and stored at −80° C. Liver, heart and skeletal muscle (upper limbs) were also extracted, frozen in dry ice-acetone and kept at −80° C.

[2] = system: hearts perfused according to Langendorff technique; experiment: Myocardial ischemia: LDH release from Langendorff-perfused rat hearts (ischemia/reperfusion); parameters: species or system male Wistar rats
Description: To this end, male Wistar rats, weighing 200-225 g, provided by Charles-River, were kept at constant temperature of 23°+/−1° C., 50+/−10% relative humidity, 12 hours light-dark cycle, fed with pellet 4RF21 (Mucedola) tap water ad libitum.
The amimals were anaesthetised with sodium Pentobarbital at the dose of 70 mg/Kg i.p.. Hearts were rapidly removed and put in a cold Krebs-Henseleit solution, before incannulation of aorta e subsequent perfusion according to Langendorff technique at 37° C. with a pressure of 100 cm water.
Perfusion medium (Krebs-Henseleit) at pH 7.4 consists in: 128 mM NaCl, 4.7 mM KCl, 1 mM MgCl2, 0.4 mM Na2HP04, 20.2 mM NaHCO3, 1.3 mM CaCl2, 5 mM glucose. The medium was constantly oxygenated with carbogen (95% O2, 5% CO2).
After a 10 min “conditioning” period, hearts were perfused in a recirculant apparatus for 20 min. with the same medium containing 0.6 mM palmitate complexed with albumine (fraction V, fatty acid free), with or without the CPT inhibitor according to the present invention. By way of example ST 1364 was used at concentrations of 1 and 5 μM. After such a period ischemia was induced by reducing perfusion hydrostatic pressure from 100 cm to 20 cm for a period of 30 min. Reperfusion was started re-establishing the starting pressure conditions (100 cm).Hearts were controlled for 20 min. the inhibitor is present also during reperfusion phase.
Lactate dehydrogenases (LDH) release was monitored in the effluent in normal oxygenation conditions, during ischemia, with a withdrawal of medium at 30′, and during reperfusion, with withdrawals at 1.5, 10, 15 and 20 minutes.
Statistical analysis was carried out with Student's “t” test for non-paired data.
The number of the cases for each group is six (n=6).

With `CCCCCCCCCCCCCCOP(=O)([O-])O[C@H](CC(=O)O)C[N+](C)(C)C` [SDZ-CPI-975, reference compound] the IC50 (CPTI) was 17.4 µM, the “Glu (glucose) serum concentration, Mean” value (24 hours-starved rats) was 87.6 and the “β-OHB serum concentration, Mean” value (24 hours-starved rats) was 119.9. For the same compound, the IC50 [1] was 3.7 µM.
`CCCCCCCCCNC(=O)NC(CC(=O)[O-])C[N+](C)(C)C` (centres unmarked) [ST1251, R,S-4-trimethylammonium-3-(nonylcarbamoyl)aminobutyrate] was tested, and the “Glu (glucose) serum concentration, Mean” value (24 hours-starved rats) was 76.9, the “β-OHB serum concentration, Mean” value (24 hours-starved rats) was 99.8 and the IC50 [1] was 0.5 µM.
In the case of `CCCCCCCCOC(=O)NC(CC(=O)O)C[N+](C)(C)C.[Cl-]` (centres unmarked) [ST1253, R,S-4-trimethylammonium-3-(octyloxycarbonyl)-aminobutyrate chloride], the “Glu (glucose) serum concentration, Mean” value (24 hours-starved rats) is reported as 88.2, the “β-OHB serum concentration, Mean” value (24 hours-starved rats) is reported as 118.8 and the IC50 [1] is reported as 0.9 µM.
`CCCCCCCCCOC(=O)NC(CC(=O)[O-])C[N+](C)(C)C` (centres unmarked) [ST1285, R,S-4-trimethylammonium-3-(nonyloxycarbonyl)-aminobutyrate] gave an IC50 [1] of 1.9 µM.
`CCCCCCCCCCCCCCNC(=O)N[C@H](CC(=O)[O-])C[N+](C)(C)C` [ST1326, R-4-trimethylammonium-3-(tetradecylcarbamoyl)amino butyrate] was tested, and the IC50 (CPTI) was 0.75 µM, the “Glu (glucose) serum concentration, Mean” value (24 hours-starved rats) was 84.2 and the “β-OHB serum concentration, Mean” value (24 hours-starved rats) was 133.1.
For `CCCCCCCCCCCNC(=O)N[C@H](CC(=O)[O-])C[N+](C)(C)C` [ST1327, R-4-trimethylammonium-3-(undecylcarbamoyl)-aminobutyrate], the IC50 (CPTI) was 3.2 µM, the “Glu (glucose) serum concentration, Mean” value (24 hours-starved rats) was 84.9 and the “β-OHB serum concentration, Mean” value (24 hours-starved rats) was 93.0. The Glucose (fed with high-fat diet; High Fat diet Treated, p<0.001 against high fat diet) was 181.4 ± 9.63 mg/dL, the Insulin (fed with high-fat diet; High Fat diet Treated, p<0.01 against high fat diet) was 0.621 ± 0.117 ng/mL and the “glucose levels (in words)” value (fed with high-fat diet; high-fat diet) was “significantly decreased”. The “insulin levels (in words)” value (fed with high-fat diet; high-fat diet) was “significantly decreased”.
`CCCCCCCNC(=O)N[C@H](CC(=O)[O-])C[N+](C)(C)C` [ST1328, R-4-trimethylammonium-3-(heptylcarbamoyl)-aminobutyrate] was tested, and the “Glu (glucose) serum concentration, Mean” value (24 hours-starved rats) was 79.5 and the “β-OHB serum concentration, Mean” value (24 hours-starved rats) was 169.2.
`CCCCCCCCCCS(=O)(=O)NC(CC(=O)[O-])C[N+](C)(C)C` (centres unmarked) [ST1364, R,S-4-trimethylammonium-3-(decansulfonyl)aminobutyrate] was tested, and the “LDH release in perfusate” value ([2]; 1 μM, Basal) was 275 mU/ml/min, the “LDH release in perfusate” value ([2]; 1 μM, Ischemia 30′) was 220 mU/ml/min and the “LDH release in perfusate” value ([2]; 1 μM, Reperfusion 1′) was 480 mU/ml/min. The “LDH release in perfusate” value ([2]; 1 μM, Reperfusion 5′) was 500 mU/ml/min, the “LDH release in perfusate” value ([2]; 1 μM, Reperfusion 10′) was 495 mU/ml/min and the “LDH release in perfusate” value ([2]; 1 μM, Reperfusion 15′) was 510 mU/ml/min. For the same compound, the “LDH release in perfusate” value ([2]; 1 μM, Reperfusion 20′) was 580 mU/ml/min, the “LDH release in perfusate” value ([2]; 5 μM, Basal) was 220 mU/ml/min and the “LDH release in perfusate” value ([2]; 5 μM, Ischemia 30′) was 200 mU/ml/min. For the same compound, the “LDH release in perfusate” value ([2]; 5 μM, Reperfusion 1′) was 410 mU/ml/min, the “LDH release in perfusate” value ([2]; 5 μM, Reperfusion 5′) was 380 mU/ml/min and the “LDH release in perfusate” value ([2]; 5 μM, Reperfusion 10′) was 380 mU/ml/min. For the same compound, the “LDH release in perfusate” value ([2]; 5 μM, Reperfusion 15′) was 320 mU/ml/min, the “LDH release in perfusate” value ([2]; 5 μM, Reperfusion 20′) was 325 mU/ml/min and the “LDH release in the effluent during reperfusion (in words)” value ([2]; 5 μM, with respect to the controls) was “significantly reduced”.
